Measurements from patent US20150141381A1, “TETRACYCLINE COMPOUNDS HAVING TARGET THERAPEUTIC ACTIVITIES” (Paratek Pharmaceuticals, Inc., priority 2001, published 2015).
Like-named read-outs stand apart in the source and are kept apart here.

Legend:
S. aureus RN450 = test: In Vitro Anti-Bacterial Activity Assay (MIC), gram positive; format: cell-based; settings: Staphylococcus aureus, RN450, 18 h
E. coli mL308 225 = test: In Vitro Anti-Bacterial Activity Assay (MIC), gram negative; format: cell-based; settings: Escherichia coli, ML308225, 18 h
[1] = gram positive bacteria, read-out: Antibiotic Activity Gram + (MIC)
[2] = gram negative bacteria, read-out: Antibiotic Activity Gram − (MIC)
[3] = MIC class, Table 3 (Continued), read-out: Gram+ activity
[4] = MIC class, Table 3 (Continued), read-out: Gram− activity
[5] = MIC class, Table 3, read-out: Antibiotic Activity Gram +
[6] = MIC class, Table 3, read-out: Antibiotic Activity Gram −

SMILES	MIC (S. aureus RN450; [1]) [µg/mL]	MIC (E. coli mL308 225; [2]) [µg/mL]	other results
CCCN(C)Cc1cc(N(C)C)c2c(c1O)C(=O)C1=C(O)[C@]3(O)C(=O)C(C(N)=O)=C(O)[C@@H](N(C)C)[C@@H]3C[C@@H]1C2	< 4	> 4	
CN(C)[C@@H]1C(O)=C(C(N)=O)C(=O)[C@@]2(O)C(O)=C3C(=O)c4c(O)ccc(C5CCOC5)c4C[C@H]3C[C@@H]12 (stereo partly shown)	< 4	< 4	
CN(C)[C@@H]1C(O)=C(C(N)=O)C(=O)[C@@]2(O)C(O)=C3C(=O)c4c(O)ccc(-c5ccc(NC(=O)OC(C)(C)C)cc5)c4C[C@H]3C[C@@H]12	< 4	< 4	
CN(C)[C@@H]1C(O)=C(C(N)=O)C(=O)[C@@]2(O)C(O)=C3C(=O)c4c(O)ccc(CNC(=O)c5cc(O)ncn5)c4C[C@H]3C[C@@H]12	< 4	> 4	
CN(C)[C@@H]1C(O)=C(C(N)=O)C(=O)[C@@]2(O)C(O)=C3C(=O)c4c(O)ccc(C5C=CCC5)c4C[C@H]3C[C@@H]12 (stereo partly shown)			MIC (S. aureus RN450; [3]): < 4 µg/mL; MIC (E. coli mL308 225; [4]): < 4 µg/mL
CN(C)[C@@H]1C(O)=C(C(N)=O)C(=O)[C@@]2(O)C(O)=C3C(=O)c4c(O)c(CNC(=O)C5CC5)cc(-c5ccc(C(C)(C)C)cc5)c4C[C@H]3C[C@@H]12	< 4	< 4	
CN(C)C1C(O)=C(C(N)=O)C(=O)[C@@]2(O)C(O)=C3C(=O)c4c(O)c(CNCC(C)(C)C)cc(CNCC(C)(C)C)c4C[C@H]3C[C@@H]12 (stereo partly shown) [MU]			MIC (S. aureus RN450; [5]): < 4 µg/mL; MIC (E. coli mL308 225; [6]): < 4 µg/mL
COC(=O)C1CCN(Cc2ccc(-c3ccc(O)c4c3C[C@H]3C[C@H]5[C@H](N(C)C)C(O)=C(C(N)=O)C(=O)[C@@]5(O)C(O)=C3C4=O)cc2)CC1	< 4	< 4	
COc1cc(-c2ccc(O)c3c2C[C@H]2C[C@H]4[C@H](N(C)C)C(O)=C(C(N)=O)C(=O)[C@@]4(O)C(O)=C2C3=O)cc(OC)c1OC [GE]			MIC (S. aureus RN450; [5]): < 4 µg/mL; MIC (E. coli mL308 225; [6]): > 4 µg/mL
CN(C)c1cc(CN2CCCCCC2)c(O)c2c1C[C@H]1C[C@H]3[C@H](N(C)C)C(O)=C(C(N)=O)C(=O)[C@@]3(O)C(O)=C1C2=O	< 4	< 4	
CN(C)c1cc(CN2CCC3(CCCC3)CC2)c(O)c2c1C[C@H]1C[C@H]3[C@H](N(C)C)C(O)=C(C(N)=O)C(=O)[C@@]3(O)C(O)=C1C2=O	< 4	< 4	
CN(C)[C@@H]1C(O)=C(C(N)=O)C(=O)[C@@]2(O)C(O)=C3C(=O)c4c(O)ccc(-c5ccc(CNc6cccnc6)cc5)c4C[C@H]3C[C@@H]12	< 4	> 4	
CCCCOc1ccc(I)c2c1C(=O)C1=C(O)[C@]3(O)C(=O)C(C(N)=O)=C(O)[C@@H](N(C)C)[C@@H]3C[C@@H]1C2 [OS]			MIC (S. aureus RN450; [5]): > 4 µg/mL; MIC (E. coli mL308 225; [6]): > 4 µg/mL
CN(C)Cc1cc(N(C)C)c2c(c1O)C(=O)C1=C(O)[C@]3(O)C(=O)C(C(N)=O)=C(O)[C@@H](N(C)C)[C@@H]3C[C@@H]1C2	< 4	> 4	
Cc1c2c(c(O)c3c(O)cccc13)C(=O)[C@]1(O)C(=O)C(C(N)=O)=C(O)[C@@H](N(C)C)[C@@H]1C2			MIC (S. aureus RN450; [3]): < 4 µg/mL; MIC (E. coli mL308 225; [4]): < 4 µg/mL
CN(C)[C@@H]1C(O)=C(C(N)=O)C(=O)[C@@]2(O)C(O)=C3C(=O)c4c(O)ccc(/C=C/S(C)(C)C)c4C[C@H]3C[C@@H]12			MIC (S. aureus RN450; [3]): < 4 µg/mL; MIC (E. coli mL308 225; [4]): < 4 µg/mL
CC(C)COC(=O)NCc1cc(N(C)C)c2c(c1O)C(=O)C1=C(O)[C@]3(O)C(=O)C(C(N)=O)=C(O)[C@H](N(C)C)[C@@H]3C[C@@H]1C2 [EQ]			MIC (S. aureus RN450; [5]): < 4 µg/mL; MIC (E. coli mL308 225; [6]): > 4 µg/mL
CCOC(=O)Nc1cc(N(C)C)c2c(c1O)C(=O)C1=C(O)[C@]3(O)C(=O)C(C(N)=O)=C(O)[C@@H](N(C)C)[C@@H]3C[C@@H]1C2 [drawing 3362]	< 4	< 4	

SMILES	MIC (S. aureus RN450; [1]) [µg/mL]	MIC (E. coli mL308 225; [2]) [µg/mL]	other results
CN(C)[C@@H]1C(O)=C(C(N)=O)C(=O)[C@@]2(O)C(O)=C3C(=O)c4c(O)c(CNCC(C)(C)C)cc(-c5ccccn5)c4C[C@H]3C[C@@H]12	< 4	> 4	
CON(C)CC(=O)Nc1ccc(-c2ccc(O)c3c2C[C@H]2C[C@H]4[C@@H](N(C)C)C(O)=C(C(N)=O)C(=O)[C@@]4(O)C(O)=C2C3=O)cc1 [PN]			MIC (S. aureus RN450; [5]): < 4 µg/mL; MIC (E. coli mL308 225; [6]): > 4 µg/mL
CN(C)c1cc(NC(=S)Nc2cccc3ccccc23)c(O)c2c1C[C@H]1C[C@H]3[C@H](N(C)C)C(O)=C(C(N)=O)C(=O)[C@@]3(O)C(O)=C1C2=O [CA]			MIC (S. aureus RN450; [5]): < 4 µg/mL; MIC (E. coli mL308 225; [6]): > 4 µg/mL
CN(C)[C@@H]1C(O)=C(C(N)=O)C(=O)[C@@]2(O)C(O)=C3C(=O)c4c(ccc(NC5CCN(Cc6ccccc6)CC5)c4O)C[C@H]3C[C@@H]12	> 4	> 4	
CONC(=O)c1cccc(-c2ccc(O)c3c2C[C@H]2C[C@H]4[C@H](N(C)C)C(O)=C(C(N)=O)C(=O)[C@@]4(O)C(O)=C2C3=O)c1	< 4	> 4	
CCc1cc(CNC(=O)N2CCOCC2)c2c(c1O)C(=O)C1=C(O)[C@]3(O)C(=O)C(C(N)=O)=C(O)[C@@H](N(C)C)[C@@H]3C[C@@H]1C2	> 4	> 4	
CC(=O)c1cc(C(C)(C)C)c(O)c2c1C[C@H]1C[C@H]3[C@H](N(C)C)C(O)=C(C(N)=O)C(=O)[C@@]3(O)C(O)=C1C2=O	< 4	< 4	
CCCCCCOC(=O)NCc1cc(N(C)C)c2c(c1O)C(=O)C1=C(O)[C@]3(O)C(=O)C(C(N)=O)=C(O)[C@@H](N(C)C)[C@@H]3C[C@@H]1C2 [FE]			MIC (S. aureus RN450; [5]): < 4 µg/mL; MIC (E. coli mL308 225; [6]): > 4 µg/mL
CN1CCC(NCc2ccc3c(c2O)C(=O)C2=C(O)[C@]4(O)C(=O)C(C(N)=O)=C(O)[C@@H](N(C)C)[C@@H]4C[C@@H]2C3)CC1	> 4	> 4	
CN(C)c1cc(CNC2CCCC2)c(O)c2c1C[C@H]1C[C@H]3[C@H](N(C)C)C(O)=C(C(N)=O)C(=O)[C@@]3(O)C(O)=C1C2=O	< 4	> 4	
CC(CC(F)(F)F)N(C)Cc1cc(N(C)C)c2c(c1O)C(=O)C1=C(O)[C@]3(O)C(=O)C(C(N)=O)=C(O)[C@@H](N(C)C)[C@@H]3C[C@@H]1C2 (stereo partly shown)	< 4	< 4	
CCCCOC1C(C(N)=O)=C(O)[C@@H](N(C)C)[C@@H]2[C@@H](O)[C@H]3C(=C(O)[C@]12O)C(=O)c1c(O)cccc1[C@@H]3C (stereo partly shown)	> 4	> 4	
CN(C)c1cc(C#CC(=O)O)c(O)c2c1C[C@H]1C[C@H]3[C@H](N(C)C)C(O)=C(C(N)=O)C(=O)[C@@]3(O)C(O)=C1C2=O	> 4	> 4	
CN(C)[C@@H]1C(O)=C(C(N)=O)C(=O)[C@@]2(O)C(O)=C3C(=O)c4c(O)cccc4C[C@H]3C[C@@H]12 [E]			MIC (S. aureus RN450; [5]): < 4 µg/mL; MIC (E. coli mL308 225; [6]): < 4 µg/mL
CN(C)[C@@H]1C(O)=C(C(N)=O)C(=O)[C@@]2(O)C(O)=C3C(=O)c4c(O)ccc(-c5ccc(CNC6CC6)o5)c4C[C@H]3C[C@@H]12	< 4	< 4	
C[C@H]1c2ccc(CNC(=O)c3ccccc3)c(O)c2C(=O)C2=C(O)[C@]3(O)C(=O)C(C(N)=O)=C(O)[C@@H](N(C)C)[C@@H]3[C@@H](O)[C@@H]21 [JO]			MIC (S. aureus RN450; [5]): < 4 µg/mL; MIC (E. coli mL308 225; [6]): > 4 µg/mL
CN(C)C1C(O)=C(C(N)=O)C(=O)[C@@]2(O)C(O)=C3C(=O)c4c(O)ccc(-c5ccc(CNCc6ccccc6)o5)c4C[C@H]3C[C@@H]12 (stereo partly shown) [LL]			MIC (S. aureus RN450; [5]): < 4 µg/mL; MIC (E. coli mL308 225; [6]): < 4 µg/mL
